Measured values from patent US20170266174A1, “Compositions and Methods for Extending Lifespan” (COLLABORATIVE MEDICINAL DEVELOPMENT LLC, priority 2014, published 2017).
Entries after “also recorded” stand apart in the source; their conditions may differ.

Experiments:
[1] = tested on: C. elegans; experiment: Lifespan analysis of C. elegans treated with SIH; assay type: in vivo, Caenorhabditis elegans; conditions: for median lifespan: 25° C., treated from adulthood onwards, control (0 μM SIH) 12 days
Method: The effects of genetic ablation of ftn-2 and ftn-1 on wild type was measured using established protocols(11, 38). For SIH treatment compound was dissolved in dimethyl sulfoxide (Sigma-Aldrich) then added to the molten NGM at 55° C. along with 50 μg/mL amplicillin (Sigma-Aldrich). Media containing equivalent vehicle alone (0.5% v/v DMSO) and ampicillin was used for comparison. SIH data was collected using the temperature sensitive-sterile strain TJ1060. All life span assays were conducted at 25° C. following adulthood.
Kaplan-Maier survival curves were generated and compared via non-parametric Log rank tests (Prism v5.0d, Graphpad Software).

[2] = tested on: C. elegans; experiment: SEC-ICP-MS (LC-ICP-MS) chromatographic distribution of iron in SIH-treated C. elegans; assay type: in vivo, Caenorhabditis elegans
Method: Samples were homogenized in TBS (pH 8.0) with added proteinase inhibitors (EDTA-free, Roche), then clarified by a 15 min centrifugation at 175,000 g, 4° C. The protein concentration of the supernatant was determined via UV absorbance (Nanodrop, ThermoScientific) and equivalent protein amounts were size-excluded using a Bio SEC-5 (4.6×300 mm, 5 μm, Agilent) column with 200 mM ammonium nitrate (trace analysis grade, Sigma) pH 8.0 buffer the flow rate was 0.4 mL/min at 30° C. The eluant from the column was directly connected to the ICP-MS for elemental detection as previously described (37).

[3] = tested on: lysates of young adult wild type C. elegans; experiment: Ex vivo ROS production detected by DCF fluorescence from C. elegans lysates; assay type: biochemical, Caenorhabditis elegans; conditions: 50 μM DTPA added to lysate (10 μg) of young adult wild type
Method: 2′,7′-dichlorodihydrofluorescein diacetate (DCFH-DA) at 10 μM was used as a fluorescent probe for reactive oxygen species (ROS) detection in vivo using standard protocols (33). DCFH-DA enters and accumulates in the intestinal cells, where it is oxidized by several ROS (including hydroxyl radicals) to form the fluorophore DCF(34). Analysis of fluorescence rate increase was performed on samples sonicated in 1×TBS, pH 7.4 and recovered as the supernatant from a 100,000 g centrifugation at 4° C. Total protein concentration was determined by a Nanodrop spectrophotometer (Thermo Scientific). […] Fluorescence in 8 replicate wells was quantitated (Ex: 485 nm, Em: 535 nm using a 495 nm cut-off) by a FlexStation (Molecular Devices) plate reader, using 30 reads every minute for 1 h at medium PMT setting. Values from lysate-free (negative) controls were subtracted and the fluorescence data was then base line corrected. A linear regression fitted from 20-40 minutes and the slopes were normalized against 4-day old wild type and plotted (Prism v5.0d, Graphpad Software).

## O=C(NN=Cc1ccccc1O)c1ccncc1 [SIH, salicylaldehyde isonicotinoyl hydrazone]
[1]; 0, 100, 250 μM SIH
  dose-dependency of lifespan extension: dose-dependency
[1]; 100 μM SIH
  median lifespan: 17 days
[1]; 250 μM SIH
  median lifespan: 21 days
[1]; control versus 250 μM SIH median lifespan
  increase in lifespan: 75%
[2]; 250 μM SIH, 10 day old, integration of peak area
  Ferritin-bound iron (Peak #2) effect: reduced; also recorded: decreased
[2]; 250 μM SIH, 10 day old, integration of peak area from triplicate data
  LMW-iron (Peak #3) effect in words: reduced; also recorded: lowered; also recorded: attenuated
[2]; 250 μM SIH, C. elegans aged to 10 days
  HMW-iron (Peak #1) effect: unaffected
[2]; 250 μM SIH, C. elegans aged to 10 days, versus control
  LMW-iron (Peak #3) normalized peak area change: −43%
[2]; SIH treatment (data not shown)
  total soluble zinc effect: unaffected

## diethylenetriamine penta-acetic acid [DTPA]
[3]
  ROS production (DCF fluorescence) effect: abolished; also recorded: silenced
